Experimental data reported in ChEMBL document CHEMBL1201862, “PubChem BioAssay data set” (2004).
Calls of active or inactive are those of the source.

Columns and labels:
[1] = molecular target: T1, Endoribonuclease toxin MazF (Escherichia coli K-12, UniProt P0AE70); test: substrate-only fluorescence increase artefacts – biochemical, single-stranded RNase substrate, counter-screen for MazEF activator project, dose response (AID 588502); format: functional
T1 sequence (P0AE70 whole entry): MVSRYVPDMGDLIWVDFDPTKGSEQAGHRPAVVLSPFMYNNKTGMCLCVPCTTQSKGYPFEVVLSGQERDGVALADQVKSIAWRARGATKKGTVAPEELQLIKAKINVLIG

[2] = molecular target: T1, Endoribonuclease toxin MazF; test: activation of MazEF endoribonuclease cleavage – biochemical, fluorescence, single-stranded RNA substrate, uHTS hits, dose response (AID 588481); format: functional
[3] = viability of HCT116 lacking mutant beta-catenin – cell-based, human colon tumor, dose response (AID 1045); format: functional;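 note: HCT116 colon tumor cells with beta catenin knocked out; cells exposed to compound for 60 hours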
[4] = viability of PTEN-deleted HCT116 cells – cell-based, HCT116 PTEN knockout, dose response (AID 1047); format: functional;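 note: HCT116 colon tumor cells with PTEN knocked out; cells exposed to compound for 60 hours before readout; potency for loss of cell viability measured by luminescence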
Melanocortin receptor 4 = Melanocortin receptor 4 (Homo sapiens, UniProt P32245); format: functional, cell-based;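 note: Cell-based assay with luminescence read-out, confirmatory dose-response testing for agonist activity of biased ligands at MC4R; human U2OS cells with tagged receptor and beta-arrestin; potency of agonists that increase receptor coupling to beta-arrestin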
Melanocortin receptor 4, sequence (P32245 whole entry): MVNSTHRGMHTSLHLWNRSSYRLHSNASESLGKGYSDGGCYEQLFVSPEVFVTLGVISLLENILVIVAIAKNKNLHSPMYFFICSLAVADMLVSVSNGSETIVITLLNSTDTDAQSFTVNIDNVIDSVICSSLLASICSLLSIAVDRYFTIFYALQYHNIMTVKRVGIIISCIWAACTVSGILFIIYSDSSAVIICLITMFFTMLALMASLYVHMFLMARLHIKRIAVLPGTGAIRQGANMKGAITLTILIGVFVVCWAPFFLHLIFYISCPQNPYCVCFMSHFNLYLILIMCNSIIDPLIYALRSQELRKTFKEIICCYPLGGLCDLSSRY

Cytochrome P450 3A4 = Cytochrome P450 3A4 (Homo sapiens, UniProt P08684);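 note: CYP3A4 tested as one member of a cytochrome P450 panel screen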
Cytochrome P450 3A4, sequence (P08684 whole entry): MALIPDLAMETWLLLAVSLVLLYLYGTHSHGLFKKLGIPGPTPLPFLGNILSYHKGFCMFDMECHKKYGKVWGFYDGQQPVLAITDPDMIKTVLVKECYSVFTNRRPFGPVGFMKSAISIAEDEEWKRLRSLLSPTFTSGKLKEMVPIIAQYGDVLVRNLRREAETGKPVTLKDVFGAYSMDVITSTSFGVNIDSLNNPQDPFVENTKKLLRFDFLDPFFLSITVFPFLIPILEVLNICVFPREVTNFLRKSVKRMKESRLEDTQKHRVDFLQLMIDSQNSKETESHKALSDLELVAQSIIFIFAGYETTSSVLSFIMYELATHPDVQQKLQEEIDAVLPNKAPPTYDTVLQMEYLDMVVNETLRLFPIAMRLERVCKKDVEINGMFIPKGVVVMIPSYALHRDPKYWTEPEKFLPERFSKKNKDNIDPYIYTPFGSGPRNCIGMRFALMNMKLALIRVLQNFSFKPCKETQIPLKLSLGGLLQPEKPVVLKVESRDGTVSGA

Cytochrome P450 2C9 = Cytochrome P450 2C9 (Homo sapiens, UniProt P11712)
Cytochrome P450 2C9, sequence (P11712 whole entry): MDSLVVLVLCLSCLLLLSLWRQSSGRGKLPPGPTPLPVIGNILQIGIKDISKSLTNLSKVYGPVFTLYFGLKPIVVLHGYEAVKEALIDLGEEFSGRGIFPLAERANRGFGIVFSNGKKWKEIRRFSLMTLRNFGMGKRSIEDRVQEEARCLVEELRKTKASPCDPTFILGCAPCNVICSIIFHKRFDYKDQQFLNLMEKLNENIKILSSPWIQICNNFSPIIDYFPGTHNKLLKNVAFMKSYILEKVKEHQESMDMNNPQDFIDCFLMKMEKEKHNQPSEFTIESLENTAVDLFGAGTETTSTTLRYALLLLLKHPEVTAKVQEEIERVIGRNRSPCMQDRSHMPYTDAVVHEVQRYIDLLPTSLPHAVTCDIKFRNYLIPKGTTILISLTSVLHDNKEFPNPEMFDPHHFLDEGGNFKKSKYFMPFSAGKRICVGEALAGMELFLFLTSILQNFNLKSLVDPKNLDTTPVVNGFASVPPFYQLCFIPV

[5] = molecular target: Eukaryotic translation initiation factor 4E (Mus musculus, UniProt P63073); test: blockers of eIF4G binding by eIF4E – biochemical, TR-FRET, dose response (AID 855); format: functional;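 note: potency for disrupting eIF4E binding to eIF4GI seen as loss of FRET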
Eukaryotic translation initiation factor 4E, sequence (P63073 whole entry): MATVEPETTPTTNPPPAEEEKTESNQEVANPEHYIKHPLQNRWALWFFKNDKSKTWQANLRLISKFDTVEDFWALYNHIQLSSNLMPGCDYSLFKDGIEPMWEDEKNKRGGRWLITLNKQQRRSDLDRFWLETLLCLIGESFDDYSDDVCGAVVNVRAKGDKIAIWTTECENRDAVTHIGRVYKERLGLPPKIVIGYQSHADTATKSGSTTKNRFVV

Coagulation factor XII = molecular target: T2, Coagulation factor XII (Homo sapiens, UniProt P00748); format: functional;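 note: activated factor XIIa alpha cleaving a fluorogenic AMC peptide substrate; inhibitor potency from loss of enzyme activity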
T2 sequence (P00748 whole entry): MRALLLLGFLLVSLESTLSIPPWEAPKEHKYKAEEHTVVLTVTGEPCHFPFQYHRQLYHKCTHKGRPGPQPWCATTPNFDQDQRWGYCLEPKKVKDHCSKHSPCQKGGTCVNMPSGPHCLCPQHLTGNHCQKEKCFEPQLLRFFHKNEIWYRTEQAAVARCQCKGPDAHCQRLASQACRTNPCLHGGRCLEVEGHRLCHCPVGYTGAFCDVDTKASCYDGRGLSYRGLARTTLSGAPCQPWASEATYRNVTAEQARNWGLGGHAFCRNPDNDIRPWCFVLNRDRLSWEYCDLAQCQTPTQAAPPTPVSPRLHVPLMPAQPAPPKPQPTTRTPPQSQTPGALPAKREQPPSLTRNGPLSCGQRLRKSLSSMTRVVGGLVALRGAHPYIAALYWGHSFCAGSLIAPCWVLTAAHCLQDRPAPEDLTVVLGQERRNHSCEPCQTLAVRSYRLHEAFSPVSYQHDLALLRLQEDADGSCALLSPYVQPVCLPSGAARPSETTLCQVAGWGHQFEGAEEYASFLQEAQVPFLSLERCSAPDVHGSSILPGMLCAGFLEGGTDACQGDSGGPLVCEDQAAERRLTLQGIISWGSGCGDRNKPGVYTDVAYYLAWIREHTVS

[6] = molecular target: T3, Zinc finger protein mex-5 (Caenorhabditis elegans, UniProt Q9XUB2); test: potency of MEX-5 RNA-binding blockers – biochemical, C. elegans, fluorescence polarization, dose response (AID 1960)
T3 sequence (Q9XUB2 whole entry): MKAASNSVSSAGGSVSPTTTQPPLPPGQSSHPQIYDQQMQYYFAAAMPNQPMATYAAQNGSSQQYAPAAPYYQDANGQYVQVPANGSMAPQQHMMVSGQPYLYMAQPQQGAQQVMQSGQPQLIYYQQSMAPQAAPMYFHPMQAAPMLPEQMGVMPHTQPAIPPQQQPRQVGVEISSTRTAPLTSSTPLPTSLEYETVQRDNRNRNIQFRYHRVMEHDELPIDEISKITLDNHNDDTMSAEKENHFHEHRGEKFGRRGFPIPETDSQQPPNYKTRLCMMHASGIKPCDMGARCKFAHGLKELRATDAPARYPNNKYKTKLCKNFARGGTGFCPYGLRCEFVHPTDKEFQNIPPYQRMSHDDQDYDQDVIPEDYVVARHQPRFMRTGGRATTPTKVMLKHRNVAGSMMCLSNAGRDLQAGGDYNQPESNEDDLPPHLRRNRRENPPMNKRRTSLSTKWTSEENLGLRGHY

[7] = molecular target: T4, RNA-binding protein pos-1 (Caenorhabditis elegans, UniProt G5EF15); test: disruptors of C. elegans POS-1 RNA interaction – biochemical, fluorescence polarization, dose response (AID 1964);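 note: purified POS-1 fused to maltose binding protein made in E. coli; potency of compounds blocking POS-1 binding to fluorescent RNA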
T4 sequence (G5EF15 whole entry): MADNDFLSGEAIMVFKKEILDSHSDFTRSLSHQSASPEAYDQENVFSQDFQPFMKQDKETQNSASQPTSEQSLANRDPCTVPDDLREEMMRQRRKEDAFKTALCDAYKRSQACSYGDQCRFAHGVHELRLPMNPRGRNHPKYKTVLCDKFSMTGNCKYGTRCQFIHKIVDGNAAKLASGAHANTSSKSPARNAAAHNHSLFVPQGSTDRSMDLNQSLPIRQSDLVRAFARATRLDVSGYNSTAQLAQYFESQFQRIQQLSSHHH

Protein Wnt-3a = Protein Wnt-3a (Mus musculus, UniProt P27467); test: antagonism of Wnt3a pathway luciferase reporter – Wnt-LIGHT cells, luminescence, selectivity assay for Gli-SUFU antagonist project, dose response (AID 651570); format: functional; details: read-out: IC50_Mean;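 note: Wnt-LIGHT reporter cells stimulated with conditioned medium from Wnt3a-producing cells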
Protein Wnt-3a, sequence (P27467 whole entry): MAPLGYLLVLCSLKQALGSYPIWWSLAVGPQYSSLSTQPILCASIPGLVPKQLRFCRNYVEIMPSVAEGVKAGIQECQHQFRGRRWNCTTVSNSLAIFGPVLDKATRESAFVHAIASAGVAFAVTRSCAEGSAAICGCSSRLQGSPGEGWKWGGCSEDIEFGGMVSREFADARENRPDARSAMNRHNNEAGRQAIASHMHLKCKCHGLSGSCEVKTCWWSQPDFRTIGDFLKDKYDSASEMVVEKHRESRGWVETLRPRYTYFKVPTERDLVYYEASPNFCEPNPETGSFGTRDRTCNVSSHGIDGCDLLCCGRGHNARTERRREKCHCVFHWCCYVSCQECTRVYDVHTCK

[8] = Luminescence Cell-Based Dose Retest to Confirm Inhibitors of Cancer Stem Cells. [Related pubchem assays (depositor defined):AID2717, AID2721]; format: functional; details: Homo sapiens
[9] = reduction of Shn3 3'UTR-driven luciferase in osteoblasts – cell-based, Clone20 osteoblasts, firefly luciferase, cherry-picked, dose response (AID 624132); format: functional;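 note: firefly luciferase luminescence from reporter carrying the Shn3 3'UTR in osteoblasts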
INS1 = test: INS-1E survival protection against cytokine death – cell-based, luminescence, retest, dose response (AID 449756); format: functional; details: Rattus norvegicus;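 note: cell death triggered by IL-1 beta plus TNF-alpha plus IFN-gamma mixture; protective hits raise ATP signal compared with cytokine alone wells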
[10] = loss of viability in HepG2 cells – cell-based, CellTiter-Glo, cherry-picked, cytotoxicity control for Shn3 inhibitor project, dose response (AID 624134); format: functional
Cytochrome P450 1A2 = molecular target: T5, Cytochrome P450 1A2 (Homo sapiens, UniProt P05177);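 note: PubChem cytochrome P450 panel assay, CYP1A2 panel member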
T5 sequence (P05177 whole entry): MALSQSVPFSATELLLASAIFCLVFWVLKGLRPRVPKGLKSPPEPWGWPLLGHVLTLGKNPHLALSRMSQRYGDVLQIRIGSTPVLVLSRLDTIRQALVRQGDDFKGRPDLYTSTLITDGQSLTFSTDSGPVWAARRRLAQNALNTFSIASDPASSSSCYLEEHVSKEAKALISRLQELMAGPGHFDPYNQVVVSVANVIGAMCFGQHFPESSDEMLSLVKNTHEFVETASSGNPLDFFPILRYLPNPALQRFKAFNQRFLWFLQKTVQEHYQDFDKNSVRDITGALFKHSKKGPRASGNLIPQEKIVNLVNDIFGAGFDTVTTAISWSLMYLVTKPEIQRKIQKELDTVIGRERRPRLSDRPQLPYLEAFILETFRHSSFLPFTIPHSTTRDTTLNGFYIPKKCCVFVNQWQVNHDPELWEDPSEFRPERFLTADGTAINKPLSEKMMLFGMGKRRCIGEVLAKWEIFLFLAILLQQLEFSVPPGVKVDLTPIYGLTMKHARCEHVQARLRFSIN

[11] = molecular target: T6, DNA repair and recombination protein RAD54-like (Homo sapiens, UniProt Q92698); test: RAD54 Holliday junction migration blockers – biochemical, fluorescence, cherry-picked samples, dose series, confirmation (AID 651657); format: functional
T6 sequence (Q92698 whole entry): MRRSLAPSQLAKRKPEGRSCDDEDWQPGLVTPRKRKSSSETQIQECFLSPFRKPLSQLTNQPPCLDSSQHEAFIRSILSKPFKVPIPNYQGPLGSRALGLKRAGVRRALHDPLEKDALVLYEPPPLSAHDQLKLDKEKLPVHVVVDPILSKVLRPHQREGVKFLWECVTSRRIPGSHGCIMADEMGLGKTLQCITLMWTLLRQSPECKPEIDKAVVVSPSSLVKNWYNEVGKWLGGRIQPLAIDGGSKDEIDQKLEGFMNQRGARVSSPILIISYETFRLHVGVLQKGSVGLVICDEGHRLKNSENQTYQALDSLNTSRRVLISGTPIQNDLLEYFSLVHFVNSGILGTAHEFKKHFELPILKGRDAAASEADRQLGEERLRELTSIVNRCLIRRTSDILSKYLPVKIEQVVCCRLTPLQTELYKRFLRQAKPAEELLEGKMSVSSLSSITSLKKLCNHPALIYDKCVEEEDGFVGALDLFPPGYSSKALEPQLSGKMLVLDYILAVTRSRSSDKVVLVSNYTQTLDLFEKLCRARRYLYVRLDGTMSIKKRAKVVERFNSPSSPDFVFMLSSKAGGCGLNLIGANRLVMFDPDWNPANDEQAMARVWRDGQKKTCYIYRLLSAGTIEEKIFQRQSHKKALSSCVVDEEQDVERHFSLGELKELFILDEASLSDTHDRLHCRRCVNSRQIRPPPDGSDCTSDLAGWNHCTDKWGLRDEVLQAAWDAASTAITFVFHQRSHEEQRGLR

Cytochrome P450 2D6 = Cytochrome P450 2D6 (Homo sapiens, UniProt P10635);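 note: CYP2D6 member of a cytochrome P450 panel assay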
Cytochrome P450 2D6, sequence (P10635 whole entry): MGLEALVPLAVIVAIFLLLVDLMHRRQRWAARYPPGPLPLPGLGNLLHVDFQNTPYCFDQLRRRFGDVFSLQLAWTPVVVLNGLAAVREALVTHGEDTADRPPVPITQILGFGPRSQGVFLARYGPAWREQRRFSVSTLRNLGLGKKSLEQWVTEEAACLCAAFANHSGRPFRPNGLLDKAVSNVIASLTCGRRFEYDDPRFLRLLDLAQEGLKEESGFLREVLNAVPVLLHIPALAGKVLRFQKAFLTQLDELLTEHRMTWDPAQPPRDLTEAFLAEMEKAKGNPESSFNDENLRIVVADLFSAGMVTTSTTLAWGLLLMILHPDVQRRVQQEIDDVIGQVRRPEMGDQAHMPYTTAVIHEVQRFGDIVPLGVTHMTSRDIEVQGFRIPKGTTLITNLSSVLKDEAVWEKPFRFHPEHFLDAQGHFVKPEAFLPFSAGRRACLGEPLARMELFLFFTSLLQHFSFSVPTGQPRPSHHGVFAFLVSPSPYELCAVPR

[12] = molecular target: T7, Heat shock factor protein 1 (Mus musculus, UniProt P38532); test: decrease of HSF1-responsive luciferase luminescence – cell-based, NIH3T3, dose retest, confirmation (AID 2382); format: functional;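 note: NIH3T3 fibroblasts with HSF1-driven luciferase reporter stressed by proteasome inhibitor MG132; luminescence from HSF1-driven luciferase expression after 8 hours of MG132 stress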
T7 sequence (P38532 whole entry): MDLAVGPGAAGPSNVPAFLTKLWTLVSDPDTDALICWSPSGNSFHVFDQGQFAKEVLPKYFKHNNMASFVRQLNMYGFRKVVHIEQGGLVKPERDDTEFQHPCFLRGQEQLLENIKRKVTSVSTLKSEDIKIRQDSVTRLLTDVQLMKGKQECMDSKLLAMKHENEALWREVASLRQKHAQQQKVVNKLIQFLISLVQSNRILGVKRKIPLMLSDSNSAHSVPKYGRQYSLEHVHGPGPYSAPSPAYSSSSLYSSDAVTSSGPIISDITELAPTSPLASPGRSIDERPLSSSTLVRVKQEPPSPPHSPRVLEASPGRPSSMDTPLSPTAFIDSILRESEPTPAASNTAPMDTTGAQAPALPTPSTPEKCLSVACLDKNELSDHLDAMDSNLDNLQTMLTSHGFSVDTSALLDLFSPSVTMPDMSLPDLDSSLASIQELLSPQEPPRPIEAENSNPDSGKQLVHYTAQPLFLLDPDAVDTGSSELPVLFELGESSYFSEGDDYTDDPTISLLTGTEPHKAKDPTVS

H9c2 = test: cells; format: functional, cell-based; details: Rattus norvegicus, H9c2, Myocardium;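 note: confirmatory concentration-response retest of ultra-high-throughput screening hits for modulation of myocardial damage; cell death induced by hydrogen peroxide oxidative stress; compound pretreatment for 60 min then peroxide exposure for 2 h; potency is for protecting the cells against peroxide damage rather than for killing them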
[13] = Fluorescence-based cell-based high throughput dose response assay for inhibitors of the interaction of nucleotide-binding oligomerization domain containing 2 (NOD2) and the receptor-interacting serine-threonine kinase 2 (RIPK2).; format: functional; details: Homo sapiens

With `CCN(CC)S(=O)(=O)c1ccc(Cl)c(NC(=O)c2cc(Cl)ccc2Cl)c1` the EC50 [1] was > 99 µM (inactive) and the EC50 [2] was > 99 µM (inactive).

With `Cc1ccc(-c2nnc(-c3ccc(NC(=O)Cc4cccs4)cc3)o2)cc1` the EC50 [3] was 4.87 µM (active), the EC50 [4] was 5.97 µM (active) and the EC50 (Melanocortin receptor 4) was > 89.2 µM (inactive).

With `CC(=O)CC(=O)[C@@]1(O)CC[C@@H]2[C@@H]3C=C(C)C4=CC(=O)CC[C@@H]4[C@H]3CC[C@]21C` the AC50 (Cytochrome P450 3A4) was “inconclusive” and the AC50 (Cytochrome P450 2C9) was 12.6 µM (inconclusive).

In the case of `O=C(c1ccc(Cl)cc1)N1CCN(C(=O)c2ccco2)CC1`, the AC50 (Cytochrome P450 3A4) is reported as “inconclusive”.

In the case of `COc1ccc(C2c3cc(OC)c(OC)cc3CCN2S(C)(=O)=O)cc1OC` (centres undefined), the IC50 [5] is reported as 50 µM (inactive), the IC50 (Coagulation factor XII) is reported as > 50 µM (inactive) and the EC50 [6] is reported as > 300 µM (not active). The EC50 [7] was > 300 µM (not active).

For `C/C=C1\C(=O)C[C@@H]2[C@@H]3CCC4=CC(=O)CC[C@@]4(C)[C@H]3CC[C@@]12C`, the AC50 (Cytochrome P450 3A4) was “inconclusive” and the AC50 (Cytochrome P450 2C9) was 39.8 µM (inconclusive).

In the case of `CCOC(=O)Cc1csc(NC(=O)c2sc3nc4cc(C)ccc4cc3c2N)n1`, the EC50 (Melanocortin receptor 4) is reported as > 89.2 µM (inactive), the EC50 [6] is reported as 1.62 µM (inconclusive) and the EC50 [7] is reported as 27.2 µM (inconclusive).

With `O=S(=O)(NCc1ccncc1)c1ccc(S(=O)(=O)NCC2CCCO2)cc1` (centres undefined) the IC50 (Protein Wnt-3a) was 7.09 µM (active) and the AC50 [8] was 0.973 µM (active).

In the case of `COc1ccc(NS(=O)(=O)c2cccc(NC(=O)c3ccc(S(=O)(=O)N4CCCCCC4)cc3)c2)cc1`, the IC50 (Protein Wnt-3a) is reported as 1.76 µM (active), the AC50 [9] is reported as 0.829 µM (active) and the AC50 (INS1) is reported as 3.12 µM (active). The AC50 [10] was 38.8 µM (active).

With `CC(=O)c1cc2c(C)c(C(=O)c3ccccc3)oc2cc1O` the EC50 [1] was > 99 µM (inactive) and the EC50 [2] was > 99 µM (inactive).

With `COCCNc1cc(-c2ccccc2C(F)(F)F)ncn1` the AC50 (Cytochrome P450 3A4) was “inconclusive” and the AC50 (Cytochrome P450 1A2) was 15.8 µM (inconclusive).

For `CN1CCN(c2nc(-c3ccncc3)nc3ccccc23)CC1`, the AC50 [11] was 8.41 µM (active).

For `CCOC(=O)c1ccc2c(c1)nc(C1CCN(S(=O)(=O)c3cccs3)CC1)n2CC`, the IC50 (Coagulation factor XII) was > 50 µM (inactive).

In the case of `NC1=Nc2ccccc2Oc2ccccc21`, the AC50 (Cytochrome P450 3A4) is reported as “inconclusive” and the AC50 (Cytochrome P450 2D6) is reported as 20 µM (inconclusive).

With `O=C(O)CC1(CC(=O)NCc2ccncc2)CCCCC1` the IC50 (Coagulation factor XII) was > 50 µM (inactive).

In the case of `Cc1cc(O)c(/C=N/c2ccc(N3CCOCC3)cc2)c(C)c1Cl`, the EC50 [12] is reported as > 195 µM (not active), the IC50 (H9c2) is reported as > 79 µM (inactive) and the EC50 [1] is reported as > 99 µM (inactive). For the same molecule, the EC50 [2] was 53.5 µM (inactive).

With `CC(=O)Nc1cc(-c2ccccc2N(C)C)cn2c(-c3ccccc3)cnc12` the EC50 (Melanocortin receptor 4) was > 89.2 µM (inactive).

With `CCOC(=O)[C@]12Cc3cc(OC)ccc3[C@H]1N(C1CCCCC1)C(=O)c1cc(OC)ccc12` the IC50 [13] was 4.81 µM (active).

For `Cc1cc(C)n(/N=C/c2ccccc2)c(=O)c1C#N`, the IC50 (Coagulation factor XII) was > 50 µM (inactive).
